Source: PubChem BioAssay AID330 (DTP/NCI, 2004)
“And” between values parts separate entries of the source, which are not always exact repeats. Equal entries are not always repeated. Toxic doses and inconclusive results are not listed. How the source made its calls: active means survival T/C of 150% or more; inactive means T/C below 125% in these data.

Tested on: P388 leukemia ip, CD2F1 mice, survival T/C
Test: NCI In Vivo Anticancer Drug Screen. Data for tumor model P388 Leukemia (intraperitoneal) in CD2F1 (CDF1) mice
Conditions: endpoint: median survival time, higher = longer survival
Procedure, shortened: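 Mice carrying the transplanted tumor received test compound or vehicle. Survival was recorded in each group, and the value is the treated-group measurement divided by that of the vehicle-treated control group.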

[1] = dose: 50.0 mg/kg/injection, schedule: Q01DX009 (ip), vehicle: Klucel (hydroxypropylcellulose) (HPC)
[2] = dose: 100.0 mg/kg/injection, schedule: Q01DX009 (ip), vehicle: Klucel (hydroxypropylcellulose) (HPC)
[3] = dose: 200.0 mg/kg/injection, schedule: Q01DX009 (ip), vehicle: Klucel (hydroxypropylcellulose) (HPC)
[4] = dose: 60.0 mg/kg/injection, schedule: Q01DX005 (ip), vehicle: saline with Tween-80
[5] = dose: 120.0 mg/kg/injection, schedule: Q01DX005 (ip), vehicle: saline with Tween-80
[6] = dose: 240.0 mg/kg/injection, schedule: Q01DX005 (ip), vehicle: saline with Tween-80
[7] = dose: 50.0 mg/kg/injection, schedule: Q01DX005 (ip), vehicle: saline with Tween-80
[8] = dose: 100.0 mg/kg/injection, schedule: Q01DX005 (ip), vehicle: saline with Tween-80
[9] = dose: 200.0 mg/kg/injection, schedule: Q01DX005 (ip), vehicle: saline with Tween-80
[10] = dose: 60.0 mg/kg/injection, schedule: Q01DX005 (ip), vehicle: Klucel (hydroxypropylcellulose) (HPC)
[11] = dose: 120.0 mg/kg/injection, schedule: Q01DX005 (ip), vehicle: Klucel (hydroxypropylcellulose) (HPC)
[12] = dose: 240.0 mg/kg/injection, schedule: Q01DX005 (ip), vehicle: Klucel (hydroxypropylcellulose) (HPC)
[13] = dose: 100.0 mg/kg/injection, schedule: Q01DX009 (ip), vehicle: saline with Tween-80
[14] = dose: 50.0 mg/kg/injection, schedule: Q01DX005 (ip), vehicle: Klucel (hydroxypropylcellulose) (HPC)
[15] = dose: 100.0 mg/kg/injection, schedule: Q01DX005 (ip), vehicle: Klucel (hydroxypropylcellulose) (HPC)

Measured: T/C

Cc1ccc(S(=O)(=O)NCCCc2ccccc2)cc1
inactive: [1] 118 % of control | [2] 123 % of control | [3] 115 % of control

CCn1c(=O)cc2n(C)c3ccccc3n2c1=O
inactive: [4] 98 % of control | [5] 94 % of control | [6] 92 % of control

c1ccc(C2=C([P+](c3ccccc3)(c3ccccc3)c3ccccc3)CCO2)cc1
inactive: dose: 1.56 mg/kg/injection, schedule: Q01DX009 (ip), vehicle: saline 110 % of control and 117 % of control | dose: 2.6 mg/kg/injection, schedule: Q01DX009 (ip), vehicle: saline 114 % of control | dose: 3.13 mg/kg/injection, schedule: Q01DX009 (ip), vehicle: saline 119 % of control and 120 % of control | dose: 4.0 mg/kg/injection, schedule: Q01DX009 (ip), vehicle: saline 114 % of control | dose: 6.0 mg/kg/injection, schedule: Q01DX009 (ip), vehicle: saline 117 % of control | dose: 6.25 mg/kg/injection, schedule: Q01DX009 (ip), vehicle: saline 124 % of control | dose: 9.0 mg/kg/injection, schedule: Q01DX009 (ip), vehicle: saline 118 % of control | dose: 12.5 mg/kg/injection, schedule: Q01DX009 (ip), vehicle: saline 100 % of control and 109 % of control

CCc1ccc(NC(=O)/C=C\C(=O)O)cc1
inactive: [7] 98 % of control | [8] 95 % of control | [9] 90 % of control

COCC1(C)CCCC2(C)C1CCC13CCCCC12O3 (stereo not drawn)
inactive: dose: 100.0 mg/kg/injection, schedule: Q01DX001 (ip), vehicle: Klucel (hydroxypropylcellulose) (HPC) 100 % of control | dose: 200.0 mg/kg/injection, schedule: Q01DX001 (ip), vehicle: Klucel (hydroxypropylcellulose) (HPC) 100 % of control | dose: 400.0 mg/kg/injection, schedule: Q01DX001 (ip), vehicle: Klucel (hydroxypropylcellulose) (HPC) 100 % of control

CCC(=O)N1C(=O)C(C)C23c4cccc([N+](=O)[O-])c4C(=O)N2CCCN13 (stereo not drawn)
inactive: [10] 100 % of control | [11] 97 % of control | [12] 93 % of control

NC(N)=NS(=O)(=O)c1ccc(N=CC2C(=O)N(c3ccccc3)N(c3ccccc3)C2=O)cc1
inactive: [1] 92 % of control | [2] 92 % of control | [3] 100 % of control

N#CNC(=Nc1ccccc1)[N](C#N)[Sn]([c]1ccccc1)([c]1ccccc1)[c]1ccccc1
inactive: dose: 1.56 mg/kg/injection, schedule: Q01DX005 (ip), vehicle: Klucel (hydroxypropylcellulose) (HPC) 100 % of control | dose: 3.12 mg/kg/injection, schedule: Q01DX005 (ip), vehicle: Klucel (hydroxypropylcellulose) (HPC) 102 % of control | dose: 6.25 mg/kg/injection, schedule: Q01DX005 (ip), vehicle: Klucel (hydroxypropylcellulose) (HPC) 103 % of control and 97 % of control

CN1CCc2cc(O)c(O)cc2C1Cc1ccc(O)c(O)c1 (stereo not drawn)
inactive: dose: 50.0 mg/kg/injection, schedule: Q01DX009 (ip), vehicle: saline with Tween-80 100 % of control | [13] 96 % of control

CC(C)C(NC(=O)CCl)C(=O)O (stereo not drawn)
inactive: [2] 98 % of control | [3] 109 % of control

C=C1C(=O)OC2CC3(C)CCCC(C)C3=CC12 (stereo not drawn)
inactive: dose: 12.5 mg/kg/injection, schedule: Q01DX009 (ip), vehicle: Klucel (hydroxypropylcellulose) (HPC) 100 % of control | dose: 25.0 mg/kg/injection, schedule: Q01DX009 (ip), vehicle: Klucel (hydroxypropylcellulose) (HPC) 96 % of control | [1] 101 % of control | [2] 100 % of control

CCc1cc(-c2cc(CC)on2)no1
inactive: dose: 60.0 mg/kg/injection, schedule: Q01DX005 (ip), vehicle: saline 103 % of control | dose: 120.0 mg/kg/injection, schedule: Q01DX005 (ip), vehicle: saline 100 % of control | dose: 240.0 mg/kg/injection, schedule: Q01DX005 (ip), vehicle: saline 91 % of control

O=C1/C(=C/c2cccc(O)c2O)SC(=S)N1Cc1ccco1
inactive: [14] 102 % of control | [15] 106 % of control | dose: 200.0 mg/kg/injection, schedule: Q01DX005 (ip), vehicle: Klucel (hydroxypropylcellulose) (HPC) 103 % of control

NC(=O)c1ccc(NO)cc1
inactive: dose: 50.0 mg/kg/injection, schedule: Q01DX009 (ip), vehicle: saline 106 % of control | dose: 100.0 mg/kg/injection, schedule: Q01DX009 (ip), vehicle: saline 98 % of control | dose: 200.0 mg/kg/injection, schedule: Q01DX009 (ip), vehicle: saline 94 % of control

CC1CCCN(c2cc3nc[nH]c(=O)c3cc2[N+](=O)[O-])C1 (stereo not drawn)
inactive: dose: 100.0 mg/kg/injection, schedule: Q04DX003 (ip), vehicle: Klucel (hydroxypropylcellulose) (HPC) 103 % of control | dose: 200.0 mg/kg/injection, schedule: Q04DX003 (ip), vehicle: Klucel (hydroxypropylcellulose) (HPC) 100 % of control | dose: 400.0 mg/kg/injection, schedule: Q04DX003 (ip), vehicle: Klucel (hydroxypropylcellulose) (HPC) 99 % of control

O=C1c2ccccc2C(=O)c2c(O)c(NCCNCCO)cc(O)c21
inactive: dose: 1.25 mg/kg/injection, schedule: Q01DX009 (ip), vehicle: acid diluted with saline 113 % of control | dose: 2.5 mg/kg/injection, schedule: Q01DX009 (ip), vehicle: acid diluted with saline 98 % of control and 104 % of control | dose: 5.0 mg/kg/injection, schedule: Q01DX009 (ip), vehicle: acid diluted with saline 117 % of control and 122 % of control | dose: 10.0 mg/kg/injection, schedule: Q01DX009 (ip), vehicle: acid diluted with saline 108 % of control and 124 % of control | dose: 20.0 mg/kg/injection, schedule: Q01DX009 (ip), vehicle: acid diluted with saline 104 % of control and 118 % of control | dose: 40.0 mg/kg/injection, schedule: Q01DX009 (ip), vehicle: acid diluted with saline 108 % of control | dose: 80.0 mg/kg/injection, schedule: Q01DX009 (ip), vehicle: acid diluted with saline 89 % of control

O=C1CCCOCCCOCCCOCCCOCCCOCCC1
inactive: [7] 103 % of control | [8] 100 % of control | [9] 100 % of control

COC(=O)C12C3C4C1C1C2C3C41C(=O)OC (stereo not drawn)
inactive: [4] 102 % of control | [5] 102 % of control | [6] 102 % of control

C/C(=C\C(=O)c1cccc(F)c1)N1CCN(c2cccc(C(F)(F)F)c2)CC1
inactive: [14] 93 % of control | [15] 94 % of control

CCOC(=O)C1=C(C)N(Cc2ccccc2)C(C)=C(C(=O)OCC)C1(C)C
inactive: [13] 104 % of control | dose: 200.0 mg/kg/injection, schedule: Q01DX009 (ip), vehicle: saline with Tween-80 118 % of control | dose: 400.0 mg/kg/injection, schedule: Q01DX009 (ip), vehicle: saline with Tween-80 118 % of control

CCOc1ccc(-n2c(-c3ccc(F)cc3)c(N=Nc3ccccc3)sc2=N)cc1
inactive: [10] 96 % of control | [11] 102 % of control | [12] 108 % of control

C[N+]1(C)[B]C[N+](C)(C)[B-]1
inactive: [1] 92 % of control | [2] 105 % of control | [3] 103 % of control

CNC(=O)Oc1ccccc1OC(C)C
inactive: dose: 7.5 mg/kg/injection, schedule: Q01DX005 (ip), vehicle: Klucel (hydroxypropylcellulose) (HPC) 97 % of control | dose: 15.0 mg/kg/injection, schedule: Q01DX005 (ip), vehicle: Klucel (hydroxypropylcellulose) (HPC) 96 % of control

CCCCCCCC[N+](C)(C)CCSCC[N+](C)(C)CCCCCCCC
inactive: dose: 3.13 mg/kg/injection, schedule: Q01DX009 (ip), vehicle: saline with Tween-80 99 % of control | dose: 6.25 mg/kg/injection, schedule: Q01DX009 (ip), vehicle: saline with Tween-80 96 % of control | dose: 12.5 mg/kg/injection, schedule: Q01DX009 (ip), vehicle: saline with Tween-80 114 % of control
